Laboratory results: patent US7902200B2, “Chemical compounds” (AstraZeneca AB, priority 2006, dated 2011)

These compounds were tested against T1, recombinant human pancreatic GLK (Homo sapiens, UniProt P35557) (assay: GKH4 variant of GLK enzymatic activity assay (automated end-point assay)). Conditions: activation of GLK; 10 nmol/l GLK; end-point at 10 minutes; no GLKRP.
T1 construct: 6-His (N); made in house; host or cells: E. coli BL21
T1 sequence (P35557 1-465): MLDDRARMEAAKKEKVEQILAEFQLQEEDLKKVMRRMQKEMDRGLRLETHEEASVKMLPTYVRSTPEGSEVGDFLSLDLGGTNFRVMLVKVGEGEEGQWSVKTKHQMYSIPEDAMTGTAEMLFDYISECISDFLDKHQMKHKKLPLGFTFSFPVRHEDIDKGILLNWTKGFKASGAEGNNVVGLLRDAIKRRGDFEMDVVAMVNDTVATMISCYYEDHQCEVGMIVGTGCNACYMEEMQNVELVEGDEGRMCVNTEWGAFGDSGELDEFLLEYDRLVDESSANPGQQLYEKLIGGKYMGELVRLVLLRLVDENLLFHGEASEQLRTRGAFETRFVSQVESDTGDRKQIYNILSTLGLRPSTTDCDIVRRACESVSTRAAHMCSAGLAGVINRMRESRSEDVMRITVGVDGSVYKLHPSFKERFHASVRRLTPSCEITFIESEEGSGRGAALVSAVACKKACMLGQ
Type: biochemical
Experimental: Enzymatic activity of recombinant human pancreatic GLK may be measured by incubating GLK, ATP and glucose. The rate of product formation may be determined by coupling the assay to a G-6-P dehydrogenase, NADP/NADPH system and measuring the linear increase with time of optical density at 340 nm (Brocklehurst et al (Diabetes 2004, 53, 535-541). Activation of GLK by compounds can be assessed using this assay in the presence or absence of GLKRP as described in Brocklehurst et al (Diabetes 2004, 53, 535-541).
One or both of two variants of this assay, GKH1 and GKH4, were used to test the compounds of the invention. The GKH1 assay is a manual, bench-top rate assay using 60 nmol/l of recombinant human pancreatic GLK. The GLK activity rate is measured over a 5 minute window using a Multiskan Ascent spectrophotometer. The GKH4 assay is an automated end-point assay using 10 nmol/l of recombinant human pancreatic GLK. The GLK activity is measured at 10 minutes after the initiation of the assay on a Perkin Elmer Envision spectrophotometer.

EC50 [µM]	Structure (SMILES)
0.26	CCN1CCC(Oc2cc(Oc3ccc(C(=O)N4CCC4)nc3)cc(C(=O)Nc3cnc(C)cn3)c2)C1=O (racemic) [Example 10, 3-[6-(Azetidine-1-carbonyl)pyridin-3-yl]oxy-5-(1-ethyl-2-oxo-pyrrolidin-3-yl)oxy-N-(5-methylpyrazin-2-yl)benzamide]
0.6	Cc1cnc(NC(=O)c2cc(Oc3ccc(C(=O)N4CCC4)nc3)cc(OC3CCN(C4CCC4)C3=O)c2)cn1 (racemic) [Example 17, 3-[6-(Azetidine-1-carbonyl)pyridin-3-yl]oxy-5-(1-cyclobutyl-2-oxo-pyrrolidin-3-yl)oxy-N-(5-methylpyrazin-2-yl)benzamide]
0.29	Cc1csc(NC(=O)c2cc(Oc3cnc(C(=O)N4CCC4)cn3)cc(O[C@H]3CCN(C)C3=O)c2)n1 [Example 3, 3-[5-(Azetidine-1-carbonyl)pyrazin-2-yl]oxy-5-[(3S)-1-methyl-2-oxo-pyrrolidin-3-yl]oxy-N-(4-methyl1,3-thiazol-2-yl)benzamide]
18.3	Cc1csc(NC(=O)c2cc(Oc3cnc(C(=O)N4CCC4)cn3)cc(O[C@@H]3CCN(C)C3=O)c2)n1 [Example 4, 3-[5-(Azetidine-1-carbonyl)pyrazin-2-yl]oxy-5-[(3R)-1-methyl-2-oxo-pyrrolidin-3-yl]oxy-N-(4-methyl1,3-thiazol-2-yl)benzamide]
0.15	CN1CC[C@H](Oc2cc(Oc3ccc(C(=O)N4CCC4)cc3)cc(C(=O)Nc3cc[nH]n3)c2)C1=O [Example 5, 3-[4-(Azetidine-1-carbonyl)phenoxy]-5-[(3S)-1-methyl-2-oxo-pyrrolidin-3-yl]oxy-N-(1H-pyrazol-3-yl)benzamide]
0.19	Cc1cnc(NC(=O)c2cc(Oc3ncc(C(=O)N4CCC4)cc3Cl)cc(O[C@H]3CCN(C)C3=O)c2)cn1 [Example 6, 3-[5-(Azetidine-1-carbonyl)-3-chloro-pyridin-2-yl]oxy-5-[(3S)-1-methyl-2-oxo-pyrrolidin-3-yl]oxy-N-(5-methylpyrazin-2-yl)benzamide]
0.57	Cc1cnc(NC(=O)c2cc(Oc3ccc(S(C)(=O)=O)cc3)cc(O[C@H]3CCN(C)C3=O)c2)cn1 [Example 7, 3-[(3S)-1-Methyl-2-oxo-pyrrolidin-3-yl]oxy-N-(5-methylpyrazin-2-yl)-5-(4-methylsulfonylphenoxy)benzamide]
0.19	Cc1cnc(NC(=O)c2cc(Oc3ccc(C(=O)N4CCC4)cc3)cc(O[C@H]3CCN(C)C3=O)c2)cn1 [Example 8, 3-[4-(Azetidine-1-carbonyl)phenoxy]-5-[(3S)-1-methyl-2-oxo-pyrrolidin-3-yl]oxy-N-(5-methylpyrazin-2-yl)benzamide]
0.12	Cc1cnc(NC(=O)c2cc(Oc3ccc4c(c3)OCCCS4(=O)=O)cc(O[C@H]3CCN(C)C3=O)c2)cn1 [Example 9, 3-[(2,2-Dioxo-6-oxa-2-λ^6-thiabicyclo[5.4.0]undeca-7,9,11-trien-9-yl)oxy]-5-[(3S)-1-methyl-2-oxo-pyrrolidin-3-yl]oxy-N-(5-methylpyrazin-2-yl)benzamide]
0.08	Cc1cnc(NC(=O)c2cc(Oc3ccc4c(c3Cl)OCCN(C)C4=O)cc(O[C@H]3CCN(C)C3=O)c2)cn1 [Example 14, 3-[(11-Chloro-5-methyl-6-oxo-2-oxa-5-azabicyclo[5.4.0]undeca-8,10,12-trien-10-yl)oxy]-5-[(3S)-1-methyl-2-oxo-pyrrolidin-3-yl]oxy-N-(5-methylpyrazin-2-yl)benzamide]
0.31	Cc1cnc(NC(=O)c2cc(Oc3ccc4c(c3)OCCN(C)C4=O)cc(O[C@H]3CCN(C)C3=O)c2)cn1 [Example 16, 3-[(5-Methyl-6-oxo-2-oxa-5-azabicyclo[5.4.0]undeca-8,10,12-trien-10-yl)oxy]-5-[(3S)-1-methyl-2-oxo-pyrrolidin-3-yl]oxy-N-(5-methylpyrazin-2-yl)benzamide]
0.59	Cc1cnc(NC(=O)c2cc(Oc3ccc(C(=O)N4CCC4)nc3)cc(O[C@H]3CCN(C4CC4)C3=O)c2)cn1 [Example 19, 3-[6-(Azetidine-1-carbonyl)pyridin-3-yl]oxy-5-[(3S)-1-cyclopropyl-2-oxo-pyrrolidin-3-yl]oxy-N-(5-methylpyrazin-2-yl)benzamide]
